± gives the expanded uncertainty stated by the source.
Test: mn = molality of the nth substance listed, in mol/kg
Conditions: 298 K, Wilhelmi plate tensiometer

CCCCCCCCCCCCP(=O)([O-])[O-].[Na+].[Na+] [sodium dodecylphosphonate] + O
surface tension liquid-gas (m1 = 0.002): 66.6 ± 2 mN/m | surface tension liquid-gas (m1 = 0.004): 58.5 ± 2 mN/m | surface tension liquid-gas (m1 = 0.006): 52.9 ± 2 mN/m | surface tension liquid-gas (m1 = 0.008): 53.5 ± 2 mN/m | surface tension liquid-gas (m1 = 0.01): 52.4 ± 2 mN/m | surface tension liquid-gas (m1 = 0.012): 49.6 ± 2 mN/m | surface tension liquid-gas (m1 = 0.014): 47.4 ± 2 mN/m | surface tension liquid-gas (m1 = 0.016): 44.4 ± 2 mN/m | surface tension liquid-gas (m1 = 0.017): 44 ± 2 mN/m | surface tension liquid-gas (m1 = 0.0175): 40.9 ± 2 mN/m | surface tension liquid-gas (m1 = 0.018): 40.1 ± 2 mN/m | surface tension liquid-gas (m1 = 0.0185): 39.4 ± 2 mN/m | surface tension liquid-gas (m1 = 0.019): 40.4 ± 2 mN/m | surface tension liquid-gas (m1 = 0.02): 39.3 ± 2 mN/m | surface tension liquid-gas (m1 = 0.021): 39.6 ± 2 mN/m | surface tension liquid-gas (m1 = 0.025): 38.2 ± 2 mN/m | surface tension liquid-gas (m1 = 0.04): 36.9 ± 2 mN/m | surface tension liquid-gas (m1 = 0.05): 39.3 ± 2 mN/m

CCCCCCCC/C=C\CCCCCCCC(=O)[O-].[Na+] [sodium oleate] + O
surface tension liquid-gas (m1 = 5e-06): 62.8 ± 2 mN/m | surface tension liquid-gas (m1 = 1e-05): 58 ± 2 mN/m | surface tension liquid-gas (m1 = 2e-05): 51.8 ± 2 mN/m | surface tension liquid-gas (m1 = 3e-05): 51.2 ± 2 mN/m | surface tension liquid-gas (m1 = 4e-05): 50.7 ± 2 mN/m | surface tension liquid-gas (m1 = 5e-05): 49.9 ± 2 mN/m | surface tension liquid-gas (m1 = 0.0001): 42 ± 2 mN/m | surface tension liquid-gas (m1 = 0.0003): 32.9 ± 2 mN/m | surface tension liquid-gas (m1 = 0.0005): 29.4 ± 2 mN/m | surface tension liquid-gas (m1 = 0.0009): 26.6 ± 2 mN/m | surface tension liquid-gas (m1 = 0.0013): 25.6 ± 2 mN/m | surface tension liquid-gas (m1 = 0.0015): 25.4 ± 2 mN/m | surface tension liquid-gas (m1 = 0.0018): 25.1 ± 2 mN/m | surface tension liquid-gas (m1 = 0.002): 25.2 ± 2 mN/m | surface tension liquid-gas (m1 = 0.003): 25.1 ± 2 mN/m

CCCCCCCCCCCC(=O)[O-].[Na+] [sodium dodecanoate] + O
surface tension liquid-gas (m1 = 0.001): 64.1 ± 2 mN/m | surface tension liquid-gas (m1 = 0.002): 62.2 ± 2 mN/m | surface tension liquid-gas (m1 = 0.003): 57.6 ± 2 mN/m | surface tension liquid-gas (m1 = 0.004): 54.4 ± 2 mN/m | surface tension liquid-gas (m1 = 0.005): 54.5 ± 2 mN/m | surface tension liquid-gas (m1 = 0.006): 49.9 ± 2 mN/m | surface tension liquid-gas (m1 = 0.007): 45.8 ± 2 mN/m | surface tension liquid-gas (m1 = 0.008): 44.9 ± 2 mN/m | surface tension liquid-gas (m1 = 0.009): 44 ± 2 mN/m | surface tension liquid-gas (m1 = 0.01): 44.2 ± 2 mN/m | surface tension liquid-gas (m1 = 0.0105): 41.7 ± 2 mN/m | surface tension liquid-gas (m1 = 0.011): 41.6 ± 2 mN/m | surface tension liquid-gas (m1 = 0.012): 40.9 ± 2 mN/m | surface tension liquid-gas (m1 = 0.013): 37.4 ± 2 mN/m | surface tension liquid-gas (m1 = 0.014): 37.3 ± 2 mN/m | surface tension liquid-gas (m1 = 0.015): 37.9 ± 2 mN/m

From the NIST ThermoML archive (doi:10.1016/j.jct.2015.08.002)
